Experimental data taken from ChEMBL document CHEMBL4411300 (Eur J Med Chem, 2019).
The source made the active and inactive calls. No cut-off for these calls is given here.

Experiments:
Trypanosoma cruzi [1] = experiment: Antitrypanosomal activity against Trypanosoma cruzi MHOM/Pe/2011/Arequipa DTU 5 trypomastigotes infected in Balb/c mouse assessed as reduction in splenomegaly at 20 mg/kg, po once daily for 5 consecutive days starting from day 10 post infection measured on day 127 post infection; type: functional, organism-based
[2] = Nephrotoxicity in Balb/c mouse infected with Trypanosoma cruzi MHOM/Pe/2011/Arequipa DTU 5 trypomastigotes assessed as decrease in serum uric acid level at 20 mg/kg, po once daily for 5 consecutive days starting from day 10 post infection measured on day 16 post infection relative to control; type: toxicity, organism-based; set-up: scale not given: the % may be the effect or the level left; conditions: in vivo
[3] = (§1) Hepatotoxicity in Balb/c mouse infected with Trypanosoma cruzi MHOM/Pe/2011/Arequipa DTU 5 trypomastigotes assessed as increase in ratio of serum AST to GOT level at 20 mg/kg, po once daily for 5 consecutive days starting from day 10 post infection measured on day 127 post infection by biochemical analysis relative to control; type: toxicity, organism-based; conditions: in vivo
Trypanosoma cruzi [4] = experiment: Antitrypanosomal activity against Trypanosoma cruzi MHOM/Pe/2011/Arequipa DTU 5 trypomastigotes infected in Balb/c mouse assessed as parasite-free bone marrow at 20 mg/kg, po pretreated once daily for 5 consecutive days starting from day 75 post infection followed by cyclophosphamide-induced immunosuppression on day 100 post infection every 4 days for a maximum of 3 doses measured on day 127 post infection by PCR method; type: functional
[5] = Nephrotoxicity in Balb/c mouse infected with Trypanosoma cruzi MHOM/Pe/2011/Arequipa DTU 5 trypomastigotes assessed as decrease in serum urea level at 20 mg/kg, po once daily for 5 consecutive days starting from day 10 post infection measured on day 16 post infection relative to control; type: toxicity, organism-based; set-up: scale not given: the % may be the effect or the level left; conditions: in vivo
[6] = Nephrotoxicity in Balb/c mouse infected with Trypanosoma cruzi MHOM/Pe/2011/Arequipa DTU 5 trypomastigotes assessed as decrease in serum urea level at 20 mg/kg, po once daily for 5 consecutive days starting from day 75 post infection measured on day 81 post infection relative to control; type: toxicity, organism-based; set-up: scale not given: the % may be the effect or the level left; conditions: in vivo
[7] = Nephrotoxicity in Balb/c mouse infected with Trypanosoma cruzi MHOM/Pe/2011/Arequipa DTU 5 trypomastigotes assessed as decrease in serum urea level at 20 mg/kg, po once daily for 5 consecutive days starting from day 75 post infection measured on day 127 post infection relative to control; type: toxicity, organism-based; set-up: scale not given: the % may be the effect or the level left; conditions: in vivo
[8] = Cardiotoxicity in Balb/c mouse infected with Trypanosoma cruzi MHOM/Pe/2011/Arequipa DTU 5 trypomastigotes assessed as change in ratio of creatine kinase in muscle to brain at 20 mg/kg, po once daily for 5 consecutive days starting from day 75 post infection measured on day 127 post infection (reference value: 538 U/L); type: toxicity, organism-based; conditions: in vivo
[9] = (§2) Cardiotoxicity in Balb/c mouse infected with Trypanosoma cruzi MHOM/Pe/2011/Arequipa DTU 5 trypomastigotes assessed as change in ratio of creatine kinase in muscle to brain at 20 mg/kg, po once daily for 5 consecutive days starting from day 10 post infection measured on day 127 post infection by biochemical analysis (reference value: 496 U/L); type: toxicity, organism-based; conditions: in vivo
[10] = as §1, with “total bilirubin” for “ratio of serum AST to GOT”; type: toxicity, organism-based; conditions: in vivo
[11] = Cardiotoxicity in Balb/c mouse infected with Trypanosoma cruzi MHOM/Pe/2011/Arequipa DTU 5 trypomastigotes assessed as decrease in serum LDH level at 20 mg/kg, po once daily for 5 consecutive days starting from day 75 post infection measured on day 127 post infection relative to control; type: toxicity, organism-based; set-up: scale not given: the % may be the effect or the level left; conditions: in vivo
[12] = Hepatotoxicity in Balb/c mouse infected with Trypanosoma cruzi MHOM/Pe/2011/Arequipa DTU 5 trypomastigotes assessed as increase in total bilirubin level at 20 mg/kg, po once daily for 5 consecutive days starting from day 10 post infection measured on day 16 post infection relative to control; type: toxicity, organism-based; conditions: in vivo
Trypanosoma cruzi [13] = experiment: Induction of […] Trypanosoma cruzi MHOM/Pe/2011/Arequipa DTU 5 epimastigotes assessed as inhibition of DNA and RNA levels at IC25 after 72 hrs by acridine orange staining based flow cytometry relative to control; type: functional
[14] = Nephrotoxicity in Balb/c mouse infected with Trypanosoma cruzi MHOM/Pe/2011/Arequipa DTU 5 trypomastigotes assessed as decrease in serum uric acid level at 20 mg/kg, po once daily for 5 consecutive days starting from day 75 post infection measured on day 81 post infection relative to control; type: toxicity, organism-based; set-up: scale not given: the % may be the effect or the level left; conditions: in vivo
Trypanosoma cruzi [15] = experiment: Antitrypanosomal activity against Trypanosoma cruzi MHOM/Pe/2011/Arequipa DTU 5 trypomastigotes infected in Balb/c mouse assessed as reduction in splenomegaly at 20 mg/kg, po once daily for 5 consecutive days starting from day 75 post infection measured on day 127 post infection; type: functional, organism-based
[16] = Nephrotoxicity in Balb/c mouse infected with Trypanosoma cruzi MHOM/Pe/2011/Arequipa DTU 5 trypomastigotes assessed as serum uric acid level at 20 mg/kg, po once daily for 5 consecutive days starting from day 10 post infection measured on day 127 post infection (reference value: 4 mg/dl); type: toxicity, organism-based; conditions: in vivo
[17] = as §2, with “serum LDH level” for “ratio of creatine kinase in muscle to brain”, “2761” for “496”; type: toxicity, organism-based; conditions: in vivo
[18] = Hepatotoxicity in Balb/c mouse infected with Trypanosoma cruzi MHOM/Pe/2011/Arequipa DTU 5 trypomastigotes assessed as increase in alkaline phosphatase level at 20 mg/kg, po once daily for 5 consecutive days starting from day 10 post infection measured on day 16 post infection relative to control; type: toxicity, organism-based; conditions: in vivo
Trypanosoma cruzi [19] = experiment: Antitrypanosomal activity against Trypanosoma cruzi MHOM/Pe/2011/Arequipa DTU 5 epimastigotes assessed as change in mitochondrial membrane potential at IC25 after 72 hrs by Rho123 staining based flow cytometry relative to control; type: functional
[20] = Selectivity index, ratio of IC50 for African green monkey Vero cells to IC50 for Trypanosoma cruzi IRHOD/CO/2008/SN3 DTU 1 epimastigotes; type: toxicity; conditions: read-out: Ratio IC50
Trypanosoma cruzi [21] = experiment: Antitrypanosomal activity against Trypanosoma cruzi MHOM/Pe/2011/Arequipa DTU 5 epimastigotes assessed as effect on parasite glycolytic pathway by measuring decrease in acetate excretion at IC25 after 72 hrs by 1H NMR method; type: functional, organism-based
[22] = Selectivity index, ratio of IC50 for African green monkey Vero cells to IC50 for Trypanosoma cruzi MHOM/Pe/2011/Arequipa DTU 5 amastigotes infected in African green monkey Vero cells; type: toxicity; conditions: read-out: Ratio IC50
Trypanosoma cruzi [23] = experiment: Antitrypanosomal activity against Trypanosoma cruzi MHOM/Pe/2011/Arequipa DTU 5 epimastigotes assessed as effect on parasite glycolytic pathway by measuring decrease in L-alanine excretion at IC25 after 72 hrs by 1H NMR method; type: functional, organism-based
[24] = Hepatotoxicity in Balb/c mouse infected with Trypanosoma cruzi MHOM/Pe/2011/Arequipa DTU 5 trypomastigotes assessed as decrease in ratio of serum AST to GOT level at 20 mg/kg, po once daily for 5 consecutive days starting from day 75 post infection measured on day 81 post infection relative to control; type: toxicity, organism-based; set-up: scale not given: the % may be the effect or the level left; conditions: in vivo
[25] = Inhibition of Trypanosoma cruzi MHOM/Pe/2011/Arequipa DTU 5 epimastigotes Fe-SOD by UV-Visible spectrophotometric method
[26] = Toxicity in Balb/c mouse assessed as reduction in body mass at 20 mg/kg, po once daily for 5 consecutive days starting from day 75 post infection relative to control; type: organism-based; set-up: scale not given: the % may be the effect or the level left; conditions: in vivo
Trypanosoma cruzi [27] = experiment: Antitrypanosomal activity against Trypanosoma cruzi MHOM/Pe/2011/Arequipa DTU 5 epimastigotes assessed as effect on parasite glycolytic pathway by measuring decrease in succinate excretion at IC25 after 72 hrs by 1H NMR method relative to control; type: functional; set-up: scale not given: the % may be the effect or the level left
[28] = Toxicity in Balb/c mouse assessed as death at 20 mg/kg, po once daily for 5 consecutive days starting from day 75 post infection; type: organism-based; conditions: in vivo
Trypanosoma cruzi [29] = experiment: Trypanocidal activity against Trypanosoma cruzi IRHOD/CO/2008/SN3 DTU 1 trypomastigotes derived from infected Balb/c albino mouse after 24 hrs by resazurin dye based assay; type: functional, organism-based; conditions: IRHOD/CO/2008/SN3 DTU 1, 24 h

| SMILES | Activity (Trypanosoma cruzi [1]) | Activity [2] | Activity [3] | Activity (Trypanosoma cruzi [4]) [%] | Activity [5] | Activity [6] | Activity [7] | Activity [8] [U/L] | Activity [9] [U/L] | Activity [10] | Activity [11] | Activity [12] | inhibition (INH) (Trypanosoma cruzi [13]) [%] | Activity [14] | Activity (Trypanosoma cruzi [15]) | Activity [16] [mg/dL] | Activity [17] [U/L] | Activity [18] | Activity (Trypanosoma cruzi [19]) [%] | selectivity ratio [20] | other results |
| --- | --- | --- | --- | --- | --- | --- | --- | --- | --- | --- | --- | --- | --- | --- | --- | --- | --- | --- | --- | --- | --- |
| O=C(Cn1ccnc1[N+](=O)[O-])NCc1ccccc1 [BENZNIDAZOLE] | Active | <= 10% | > 40% | 75 | <= 10% | <= 10% | <= 10% | 538 | 496 | <= 10% | <= 10% | <= 20% | 22.4 | <= 10% | Active | 4 | 2761 | <= 20% | -35.4 | – | – |
| Cl.Cl.Cl.NCCN(CCN)CCNCc1ccc2c(c1)Cc1ccccc1-2 | Active | <= 10% | <= 30% | 5.9 | <= 10% | <= 10% | <= 10% | 538 | 496 | <= 10% | <= 10% | <= 30% | 18.3 | <= 10% | Active | 4 | 2761 | <= 20% | 7.6 | 91.3 | Activity (Trypanosoma cruzi [21]): Active; selectivity ratio [22]: 365; Activity (Trypanosoma cruzi [23]): Active; Activity [24]: <= 10%; IC50 [25]: 56.9 µM; Activity [26]: < 10%; Activity (Trypanosoma cruzi [27]): 34%; Activity [28]: Non-Toxic; IC50 (Trypanosoma cruzi [29]): 12.4 µM |
| Cl.Cl.Cl.Cl.Cl.Cl.c1ccc2nc(CNCCN(CCNCc3ccc4ccccc4n3)CCNCc3ccc4ccccc4n3)ccc2c1 | Active | <= 10% | <= 10% | – | <= 10% | <= 10% | <= 10% | 538 | 496 | <= 10% | – | <= 30% | 56.7 | <= 10% | Active | 4 | 2761 | <= 10% | -73.6 | 112 | Activity (Trypanosoma cruzi [21]): Active; selectivity ratio [22]: 692; Activity (Trypanosoma cruzi [23]): Active; Activity [24]: <= 10%; IC50 [25]: 29 µM; Activity [26]: < 10%; Activity (Trypanosoma cruzi [27]): 49%; Activity [28]: Non-Toxic; IC50 (Trypanosoma cruzi [29]): 1.1 µM |
